Patent publication US9174968B2, “Pyrimidinone compounds for use in the treatment of diseases or conditions mediated by LP-PLA2” (GLAXO GROUP LIMITED, priority 2010, dated 2015)

Key:
[1] = target: T1, Lp-PLA2 from plasma (pooled human plasma) (Homo sapiens, UniProt Q13093); assay: Lp-PLA2 human plasma assay (Thio-PAF assay); assay type: biochemical; conditions: read-out: pIC50 in the thio-PAF assay (converted)
T1 construct: from tissue; host or cells: pooled human plasma
T1 sequence (Q13093 22-441): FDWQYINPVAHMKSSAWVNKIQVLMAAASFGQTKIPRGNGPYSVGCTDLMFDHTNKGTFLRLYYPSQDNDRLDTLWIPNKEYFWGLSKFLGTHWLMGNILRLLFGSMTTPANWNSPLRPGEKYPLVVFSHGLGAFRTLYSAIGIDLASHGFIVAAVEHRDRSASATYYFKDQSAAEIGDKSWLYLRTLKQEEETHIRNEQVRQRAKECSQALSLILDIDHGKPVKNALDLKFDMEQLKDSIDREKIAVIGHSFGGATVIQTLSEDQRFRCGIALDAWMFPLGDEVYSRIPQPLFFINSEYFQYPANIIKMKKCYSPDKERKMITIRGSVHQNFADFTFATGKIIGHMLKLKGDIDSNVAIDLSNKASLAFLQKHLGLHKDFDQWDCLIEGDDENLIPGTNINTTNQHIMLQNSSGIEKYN
From the text: (3) Lipoprotein-Associated Phospholipase A2 (Lp-PLA2) Human Plasma Assay (Also Referred to as “Thio-PAF Assay”)
The human plasma assay utilizes a thioester analog of PAF (phosphatidylcholine), where hydrolysis yields to the formation of a phospholipid containing a free thiol group. The amount of thiol is quantitated continuously by reacting with CPM (7-diethylamino-3-(4′-maleimidylphenyl)-4-methylcoumarin), a maleimide which increases in fluorescence after Michael addition of thiols. This assay may detect the activity of Lp-PLA2 from plasma, as determined by specific inhibition by Lp-PLA2 inhibitors.
The thio-PAF assay was run as a quenched 15 μL assay. Compounds source plate was prepared by making 1:3 (by volume) serial dilution of the compounds into pure DMSO on 384-well microplate. 0.01 μL of compounds on compound source plate were transferred to 384 well Greiner 784076 (black) low-volume plates by ECHO liquid dispenser. 8 μL pooled human plasma, which was previously aliquoted and frozen, was added. Plates were centrifuged for 10 sec at 500 rpm. After 30 minutes preincubation, 2 μL of substrate (2.5 mM thio-PAF, 3.2 mM NEM (N-ethylmaleimide) [made fresh daily in DMSO], and 32 μM CPM [from a DMSO stock] in assay buffer of 50 mM HEPES, pH7.4, 150 mM NaCl, 1 mM CHAPS was added to 384 well Greiner 784076 (black) low-volume plates by BRAVO liquid handling station. Plates were centrifuged for 10 sec at 500 rpm. Plate was covered to protect from light and incubated for 2 min at room temperature. Reaction was quenched with 5 μL of 5% aqueous trifluoroacetic acid (TFA). Plates were covered to protect from light and incubated for 40 min at room temperature. Plates were read at ex: 380/em: 485 using-Envision microplate reader. PIC50 data, curve and QC analysis was conducted by using XLFit module in Excel.
All exemplified compounds of the present invention were tested in thio-PAF assay or similar assay as described above.

[2] = target: T2, recombinant human Lp-PLA2 (Homo sapiens, UniProt Q13093); assay: Recombinant human Lp-PLA2 assay (rhLp-PLA2, PED6 assay); assay type: biochemical; conditions: upper limit for pIC50 obtained in this assay is 9.3
T2 sequence (Q13093 22-441): T1 sequence (Q13093 22-441)
From the text: (1) Recombinant Human Lp-PLA2 Assay (rhLp-PLA2) (Also Referred to as “PED6” Assay)
N-((6-(2,4-dinitrophenyl)amino)-hexanoyl)-2-(4,4-difluoro-5,7-dimethyl-4-bora-3a,4a-diaza-s-indacene-3-pentanoyl)-1-hexadecanoyl-sn-glycero-3-phosphoethanolamine, triethylammonium salt (PED6) is a commercially available fluorescently-labelled phospholipid, which is commercially available from Molecular Probes. There is a quenching para-nitro phenyl (PNP) group in the sn3 position and a Bodipy fluorescein (FL) group in the sn2 position. Upon cleavage with Lp-PLA2, the Bodipy F1 group is liberated and then may result in an increase in fluorescence.
The PED6 assay was run as an unquenched 10 μL assay. Compounds source plate was prepared by making 1:3 (by volume) serial dilution of the compounds into pure DMSO on 384-well microplate. […] 5 μL of recombinant human Lp-PLA2 enzyme (2 nM rhLp-PLA2 in assay buffer of 50 mM HEPES, pH7.4, 150 mM NaCl, 1 mM CHAPS) was added to each well of the plate with compounds. Plates were centrifuged for 10 sec at 500 rpm. […] Plates were centrifuged for 10 sec at 500 rpm. Plate was covered to protect from light and incubated for 20 min at room temperature. […] PIC50 data, curve and QC analysis was conducted by using XL fit module in Excel.

[3] = system: proinflammatory (M1) and anti-inflammatory (M2) markers in macrophages; assay: Experimental autoimmune encephalomyelitis (EAE) model, ex vivo analysis of M1 and M2 markers by realtime PCR; assay type: in vivo, rats; conditions: EAE induced with MBP, splenic macrophages day 13 and CNS infiltrating macrophages
Method: A further study was carried out to study the impact of Lp-PLA2 inhibitors on modulating M1/M2 imbalance. In this study, rats were induced to develop experimental autoimmune encephalomyelitis (EAE) by immunization with myelin basic protein (MBP) antigen and treated with a known Lp-PLA2 inhibitor: 5-((9-Methoxy-4-oxo-6,7-dihydro-4H-pyrimido[6,1-a]isoquinolin-2-yl)oxy)-2-(3-(trifluoromethyl)phenoxy)benzonitrile (See PCT application no. PCT/CN2011/001597) For preventive treatment, compound administration started at day 0 whereas it started at 7 day in therapeutic treatment. Rats were subsequently monitored for symptoms of EAE. Rats were immunized with MBP to develop EAE and symptoms were monitored daily. Plasma Lp-PLA2 activity and LysoPC concentration were determined at different time points through the course of EAE.
Ex vivo analysis of proinflammatory (M1) and anti-inflammatory (M2) markers in control and compound treated EAE […]. Splenic macrophages were harvested at day 13 post MBP-immunization and assayed for expression of a variety of markers by realtime PCR. CNS infiltrating cells were harvested and macrophages were analyzed for expression of M1 and M2 markers by realtime PCR.

| Structure (SMILES) | IC50 [1] | IC50 [2] | M1 markers (proinflammatory) expression [3] | M2 markers (anti-inflammatory) expression [3] |
| --- | --- | --- | --- | --- |
| CCc1c[nH]c(CCc2ccc(Oc3cccc(C(F)(F)F)c3)cc2)nc1=O [E37, 5-ethyl-2-(4-(3-(trifluoromethyl)phenoxy)phenethyl)pyrimidin-4(1H)-one] | > 10 µM | > 10 µM |  |  |
| COc1ccc2c(c1)CCn1c-2cc(Oc2ccc(Oc3cccc(C(F)(F)F)c3)c(C#N)c2)nc1=O [5-((9-Methoxy-4-oxo-6,7-dihydro-4H-pyrimido[6,1-a]isoquinolin-2-yl)oxy)-2-(3-(trifluoromethyl)phenoxy)benzonitrile] |  |  | decrease | increase |
| CCc1c[nH]c(OCCc2ccc(Oc3c(F)cc(Cl)cc3F)cc2)nc1=O [E180, 2-(4-(4-chloro-2,6-difluorophenoxy)phenethoxy)-5-ethylpyrimidin-4(1H)-one] | > 10 µM | > 10 µM |  |  |
| COc1ncc(Cc2c[nH]c(OCCc3ccc(Oc4ncccn4)cc3)nc2=O)cn1 [E147, 5-((2-methoxypyrimidin-5-yl)methyl)-2-(4-(pyrimidin-2-yloxy)phenethoxy)pyrimidin-4(1H)-one] | > 10 µM | > 10 µM |  |  |
| CCc1c[nH]c(CCc2ccc(Oc3ccc(F)cc3)cc2)nc1=O [E46, 5-ethyl-2-(4-(4-fluorophenoxy)phenethyl)pyrimidin-4(1H)-one] |  | > 10 µM |  |  |
